Experimental data reported in patent US9949980B2, “Drugs to prevent HPV infection” (Wisconsin Alumni Research Foundation, priority 2008, dated 2018).
Counter-ions that a name gives are not always drawn. Like-named read-outs stand apart in the source and are kept apart here.

Key:
HPV16 pseudoviruses = assay: microbe, parasite or virus in culture; type: cell-based; conditions: Human papillomavirus 16, HEK-293T, 48 h
Method: (§1) FIG. 1. High throughout screen (HTS) for identifying inhibitors of HPV infection. Shown is a schematic showing basic steps in the HTS. […] Briefly, HPV16 pseudoviruses containing the SEAP reporter genes are analyzed for their ability to infect as judged by the levels of secreted alkaline phosphatase in the tissue culture supernatant (light grey arrows). Cell viability was assessed in parallel on the same wells (dark grey arrows). In the specific HTS carried out in this study, the compounds were added at 3 uM/1% DMSO final concentration (black arrow) 4 hours prior to infection.
(§2) After incubation at 37° C. for 24 hrs, 35 μL of media was removed. […] Cells were incubated at 37° C. for 48 hrs. 2.5 μL of media was collected for SEAP assay using a PHOSPHA-LIGHT chemiluminescent alkaline phosphatase assay (Applied Biosystems). Cell viability was determined using the CellTiter Glo Luminescent Cell Viability Assay™ (Promega).

in vitro = conditions: human
Method: as §1, §2

[1] = read-out: Infectivity (SEAP Activity), 3 μM HTS standard concentration, 293T cells, 48 hrs
[2] = read-out: Infectivity vs. viability, 3 μM HTS standard concentration, ratio infectivity/viability

For `Cc1c(NS(=O)(=O)c2cc(Cl)ccc2Cl)cccc1[N+](=O)[O-]` [Compound 6107659, 2,5-dichloro-N-(2-methyl-3-nitrophenyl)benzenesulfonamide], the activity at 3 µM (HPV16 pseudoviruses; [1]) was 22.3%, the activity at 3 µM (HPV16 pseudoviruses; [2]) was 32.9% and the viability at 52 h, 3 μM (in vitro; Viability (CelTiter Glow)) was 67.8%.

With `CC(=O)SCCC(=O)N1CCn2c3c(c4cc(C)ccc42)CCCC31` (stereo not drawn) [Compound 5915049, S-[3-(8-methyl-1,2,3a,4,5,6-hexahydro-3H-pyrazino[3,2,1-jk]carbazol-3-yl)-3-oxopropyl] ethanethioate] the activity at 3 µM (HPV16 pseudoviruses; [1]) was 56.8%, the activity at 3 µM (HPV16 pseudoviruses; [2]) was 55.9% and the viability at 52 h, 3 μM (in vitro; Viability (CelTiter Glow)) was 102%.

Molecule `CN(C)c1cccc(C(=O)NCc2ccc(S(N)(=O)=O)cc2)c1` [Compound 6106063, N-[4-(aminosulfonyl)benzyl]-3-(dimethylamino)benzamide] has an activity at 3 µM (HPV16 pseudoviruses; [1]) of 45.6%, an activity at 3 µM (HPV16 pseudoviruses; [2]) of 43.4% and a viability at 52 h, 3 μM (in vitro; Viability (CelTiter Glow)) of 105%.

`COc1ccc(CCNc2cc(N3CCN(C(=O)c4ccc(Cl)cc4)CC3)ccc2[N+](=O)[O-])cc1OC` [Compound 6144357, 5-[4-(4-chlorobenzoyl)-1-piperazinyl]-N-[2-(3,4-dimethoxyphenyl)ethyl]-2-nitroaniline] showed an activity at 3 µM (HPV16 pseudoviruses; [1]) of 39.5%, an activity at 3 µM (HPV16 pseudoviruses; [2]) of 46.6% and a viability at 52 h, 3 μM (in vitro; Viability (CelTiter Glow)) of 84.6%.

`COc1ccc(C(NC(=O)Cc2ccccc2)c2ccc3cccnc3c2O)cc1` (stereo not drawn) [Compound 5929288, N-[(8-hydroxy-7-quinolinyl)(4-methoxyphenyl)methyl]-2-phenylacetamide] gave an activity at 3 µM (HPV16 pseudoviruses; [1]) of 1.44%, an activity at 3 µM (HPV16 pseudoviruses; [2]) of 2.41% and a viability at 52 h, 3 μM (in vitro; Viability (CelTiter Glow)) of 59.8%.

Molecule `COc1cccc(C(=O)Nc2ccc3oc(-c4ccc(F)cc4Cl)nc3c2)c1` [Compound 5715107, N-[2-(2-chloro-4-fluorophenyl)-1,3-benzoxazol-5-yl]-3-methoxybenzamide] has an activity at 3 µM (HPV16 pseudoviruses; [1]) of 42.5%, an activity at 3 µM (HPV16 pseudoviruses; [2]) of 38.2% and a viability at 52 h, 3 μM (in vitro; Viability (CelTiter Glow)) of 111%.

In the case of `O=C(Nc1ccccc1)Nc1nnc(Cc2ccc(F)cc2)s1` [Compound 5789300, N-[5-(4-fluorobenzyl)-1,3,4-thiadiazol-2-yl]-N′-phenylurea], the activity at 3 µM (HPV16 pseudoviruses; [1]) is reported as 40.1%, the activity at 3 µM (HPV16 pseudoviruses; [2]) is reported as 40.8% and the viability at 52 h, 3 μM (in vitro; Viability (CelTiter Glow)) is reported as 98.4%.

Molecule `O=C1C(=Cc2ccccc2)CCCC1CN1CCOCC1` (stereo not drawn) [NRB 01540, 2-benzylidene-6-(morpholinomethyl)cyclohexan-1-one hydrochloride] has an activity at 3 µM (HPV16 pseudoviruses; [1]) of 50.5%, an activity at 3 µM (HPV16 pseudoviruses; [2]) of 49.9% and a viability at 52 h, 3 μM (in vitro; Viability (CelTiter Glow)) of 101%.

Work on `COc1ccc(OC)c(NC(=O)CN(c2cc(OC)ccc2OC)S(C)(=O)=O)c1` [Compound 6167601, N~1~,N~2~-bis(2,5-dimethoxyphenyl)-N~2~-(methylsulfonyl)glycinamide] yielded an activity at 3 µM (HPV16 pseudoviruses; [1]) of 59.1%, an activity at 3 µM (HPV16 pseudoviruses; [2]) of 54.4% and a viability at 52 h, 3 μM (in vitro; Viability (CelTiter Glow)) of 109%.

In the case of `Oc1ccccc1C=NNc1nc2c(Cl)cc(Cl)cc2s1` [RF 02710, 2-hydroxybenzaldehyde N-(4,6-dichloro-1,3-benzothiazol-2-yl)hydrazone], the activity at 3 µM (HPV16 pseudoviruses; [1]) is reported as 34.6%, the activity at 3 µM (HPV16 pseudoviruses; [2]) is reported as 36.4% and the viability at 52 h, 3 μM (in vitro; Viability (CelTiter Glow)) is reported as 94.9%.

In the case of `Cc1cc(C=C2C(=O)NC(=S)N(c3ccccc3F)C2=O)c(C)n1C` [Compound 6166672, 1-(2-fluorophenyl)-2-thioxo-5-[(1,2,5-trimethyl-1H-pyrrol-3-yl)methylene]dihydro-4,6(1H,5H)-pyrimidinedione], the activity at 3 µM (HPV16 pseudoviruses; [1]) is reported as 53.5%, the activity at 3 µM (HPV16 pseudoviruses; [2]) is reported as 49.2% and the viability at 52 h, 3 μM (in vitro) is reported as 109%.

`O=S(=O)(Nc1nc2ccccc2nc1Nc1ccccc1)c1ccccc1` [Compound 5123541, N-(3-anilino-2-quinoxalinyl)benzenesulfonamide] showed an activity at 3 µM (HPV16 pseudoviruses; [1]) of 47%, an activity at 3 µM (HPV16 pseudoviruses; [2]) of 44.5% and a viability at 52 h, 3 μM (in vitro; Viability (CelTiter Glow)) of 106%.

Work on `Cc1ccc(CN2CCN(S(C)(=O)=O)CC2)cc1` [Compound 5994189, 1-(4-methylbenzyl)-4-(methylsulfonyl)piperazine] yielded an activity at 3 µM (HPV16 pseudoviruses; [1]) of 39.8%, an activity at 3 µM (HPV16 pseudoviruses; [2]) of 36.5% and a viability at 52 h, 3 μM (in vitro; Viability (CelTiter Glow)) of 109%.

With `CN(C)C=C=C(O)c1ccccc1C(=O)c1ccc(Cl)cc1` [BTB 08556, (4-chlorophenyl)-[2-(3-dimethylamino-1-hydroxypropa-1,2-dienyl)phenyl]methanone] the activity at 3 µM (HPV16 pseudoviruses; [1]) was 55.3%, the activity at 3 µM (HPV16 pseudoviruses; [2]) was 52% and the viability at 52 h, 3 μM (in vitro; Viability (CelTiter Glow)) was 106%.

`Cc1cccc(C(=O)Nc2cccc(NC(=O)COc3ccccc3Cl)c2)c1` [Compound 6126189, N-(3-{[(2-chlorophenoxy)acetyl]amino}phenyl)-3-methylbenzamide] showed an activity at 3 µM (HPV16 pseudoviruses; [1]) of 49.8%, an activity at 3 µM (HPV16 pseudoviruses; [2]) of 50.2% and a viability at 52 h, 3 μM (in vitro; Viability (CelTiter Glow)) of 99.1%.

For `Cc1nc2cc(-c3cccc(F)c3)nn2c(O)c1C` [Compound 6156840, 2-(3-fluorophenyl)-5,6-dimethylpyrazolo[1,5-a]pyrimidin-7-ol], the activity at 3 µM (HPV16 pseudoviruses; [1]) was 63.5%, the activity at 3 µM (HPV16 pseudoviruses; [2]) was 59.2% and the viability at 52 h, 3 μM (in vitro; Viability (CelTiter Glow)) was 107%.

`CCc1ccccc1N(CC(=O)OC)S(C)(=O)=O` [Compound 6226431, methyl N-(2-ethylphenyl)-N-(methylsulfonyl)glycinate] showed an activity at 3 µM (HPV16 pseudoviruses; [1]) of 62.8%, an activity at 3 µM (HPV16 pseudoviruses; [2]) of 55.2% and a viability at 52 h, 3 μM (in vitro; Viability (CelTiter Glow)) of 114%.

With `O=C(CCSc1ccc(C(F)(F)F)cc1)c1ccco1` [MWP 01152, 1-furan-2-yl-3-[4-(trifluoromethyl)phenyl]sulfanylpropan-1-one] the activity at 3 µM (HPV16 pseudoviruses; [1]) was 57.8%, the activity at 3 µM (HPV16 pseudoviruses; [2]) was 56.1% and the viability at 52 h, 3 μM (in vitro; Viability (CelTiter Glow)) was 103%.

`CC(=O)Nc1ccccc1NC(=O)c1ccccc1I` [Compound 6168016, N-[2-(acetylamino)phenyl]-2-iodobenzamide] gave an activity at 3 µM (HPV16 pseudoviruses; [1]) of 57%, an activity at 3 µM (HPV16 pseudoviruses; [2]) of 53.7% and a viability at 52 h, 3 μM (in vitro; Viability (CelTiter Glow)) of 106%.

`CSc1nsc(SC)c1NC(=O)OCC1([N+](=O)[O-])COC(C)(C)OC1` [Compound 5893711, (2,2-dimethyl-5-nitro-1,3-dioxan-5-yl)methyl [3,5-bis(methylthio)-4-isothiazolyl]carbamate] gave an activity at 3 µM (HPV16 pseudoviruses; [1]) of 63.3%, an activity at 3 µM (HPV16 pseudoviruses; [2]) of 58.6% and a viability at 52 h, 3 μM (in vitro; Viability (CelTiter Glow)) of 108%.

With `Cc1ccccc1C(=O)Nc1cccc(NC(=O)c2ccc(-c3ccc(Br)cc3)o2)c1` [Compound 6021688, 5-(4-bromophenyl)-N-{3-[(2-methylbenzoyl)amino]phenyl}-2-furamide] the activity at 3 µM (HPV16 pseudoviruses; [1]) was 40.2%, the activity at 3 µM (HPV16 pseudoviruses; [2]) was 38.7% and the viability at 52 h, 3 μM (in vitro; Viability (CelTiter Glow)) was 104%.

For `COn1c(=O)c(=O)n(OC)c2ccccc21` [Compound 5896361, 1,4-dimethoxy-1,4-dihydro-2,3-quinoxalinedione], the activity at 3 µM (HPV16 pseudoviruses; [1]) was 60.8%, the activity at 3 µM (HPV16 pseudoviruses; [2]) was 59.3% and the viability at 52 h, 3 μM (in vitro; Viability (CelTiter Glow)) was 102%.

`O=C(NC(NC(=S)Nc1ccccc1[N+](=O)[O-])C(Cl)(Cl)Cl)c1ccco1` (stereo not drawn) [Compound 5143070, N-[2,2,2-trichloro-1-({[(2-nitrophenyl)amino]carbonothioyl}amino)ethyl]-2-furamide] showed an activity at 3 µM (HPV16 pseudoviruses; [1]) of 43.7%, an activity at 3 µM (HPV16 pseudoviruses; [2]) of 40.5% and a viability at 52 h, 3 μM (in vitro; Viability (CelTiter Glow)) of 108%.

Work on `N#CCCOCc1cccc2ccccc12` [Compound 5102121, 3-(1-naphthylmethoxy)propanenitrile] yielded an activity at 3 µM (HPV16 pseudoviruses; [1]) of 55.8%, an activity at 3 µM (HPV16 pseudoviruses; [2]) of 50.6% and a viability at 52 h, 3 μM (in vitro; Viability (CelTiter Glow)) of 110%.

Molecule `CCOc1ccc(C(=O)Nc2ccc3oc(-c4ccccc4F)nc3c2)cc1Cl` [Compound 6021315, 3-chloro-4-ethoxy-N-[2-(2-fluorophenyl)-1,3-benzoxazol-5-yl]benzamide] has an activity at 3 µM (HPV16 pseudoviruses; [1]) of 47%, an activity at 3 µM (HPV16 pseudoviruses; [2]) of 48.8% and a viability at 52 h, 3 μM (in vitro; Viability (CelTiter Glow)) of 96.3%.

With `O=C1C(=Cc2cccc(O)c2)SC(=S)N1c1ccc(Cl)cc1` [Compound 5851060, 3-(4-chlorophenyl)-5-(3-hydroxybenzylidene)-2-thioxo-1,3-thiazolidin-4-one] the activity at 3 µM (HPV16 pseudoviruses; [1]) was 56.3%, the activity at 3 µM (HPV16 pseudoviruses; [2]) was 55.3% and the viability at 52 h, 3 μM (in vitro; Viability (CelTiter Glow)) was 102%.
